These results are taken from article PMC2493416 (Anesthesia and analgesia, 2008).

In general, IC50 refers to the midpoint of a concentration-inhibition curve. The low end stands for higher potency, the high end for lower potency.

Structures are written as SMILES.

For assay [1], the target named is N-methyl-D-aspartate receptor (NMDAR) NR1/NR2B (Homo sapiens, UniProt Q05586+Q13224). As to the kind of experiment: two-electrode voltage clamp in oocytes, inhibition concentration-response. It is filed as cell-based. Background: In two-electrode clamp one electrode senses voltage and the other passes current.
The target in assay [2] is γ-aminobutyric acid type A receptor (GABAAR) α1β2γ2s (Homo sapiens, UniProt P14867+P47870). Nature of the assay: whole-cell patch clamp, shift of GABA EC50. It counts as cell-based.
Chain of γ-aminobutyric acid type A receptor (GABAAR) α1β2γ2s (P14867 28-456): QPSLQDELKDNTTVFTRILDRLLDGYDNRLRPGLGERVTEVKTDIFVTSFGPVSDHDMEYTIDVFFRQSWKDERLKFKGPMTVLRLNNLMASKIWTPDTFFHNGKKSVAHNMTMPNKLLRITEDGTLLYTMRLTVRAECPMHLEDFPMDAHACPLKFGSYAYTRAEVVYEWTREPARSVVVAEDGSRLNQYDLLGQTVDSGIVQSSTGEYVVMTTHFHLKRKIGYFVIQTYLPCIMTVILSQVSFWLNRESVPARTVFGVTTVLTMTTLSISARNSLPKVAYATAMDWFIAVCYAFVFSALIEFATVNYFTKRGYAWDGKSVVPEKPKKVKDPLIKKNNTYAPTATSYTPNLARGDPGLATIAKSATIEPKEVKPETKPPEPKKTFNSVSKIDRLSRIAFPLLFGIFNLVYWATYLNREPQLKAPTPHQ
Chain of γ-aminobutyric acid type A receptor (GABAAR) α1β2γ2s (P47870 26-512): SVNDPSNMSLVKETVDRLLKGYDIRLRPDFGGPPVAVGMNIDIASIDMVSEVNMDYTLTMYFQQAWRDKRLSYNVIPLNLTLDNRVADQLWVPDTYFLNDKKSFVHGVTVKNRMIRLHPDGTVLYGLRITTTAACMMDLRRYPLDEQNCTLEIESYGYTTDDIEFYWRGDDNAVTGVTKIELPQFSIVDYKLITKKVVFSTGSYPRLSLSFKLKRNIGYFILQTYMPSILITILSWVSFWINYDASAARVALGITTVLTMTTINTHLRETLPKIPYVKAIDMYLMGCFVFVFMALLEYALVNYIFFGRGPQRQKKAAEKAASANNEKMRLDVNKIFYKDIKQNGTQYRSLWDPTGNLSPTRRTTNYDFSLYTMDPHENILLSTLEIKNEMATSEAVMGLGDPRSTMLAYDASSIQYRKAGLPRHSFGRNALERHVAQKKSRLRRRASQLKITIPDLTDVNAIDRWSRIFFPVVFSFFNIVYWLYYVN
Chain of γ-aminobutyric acid type A receptor (GABAAR) α1β2γ2s (P18507 40-475 partner): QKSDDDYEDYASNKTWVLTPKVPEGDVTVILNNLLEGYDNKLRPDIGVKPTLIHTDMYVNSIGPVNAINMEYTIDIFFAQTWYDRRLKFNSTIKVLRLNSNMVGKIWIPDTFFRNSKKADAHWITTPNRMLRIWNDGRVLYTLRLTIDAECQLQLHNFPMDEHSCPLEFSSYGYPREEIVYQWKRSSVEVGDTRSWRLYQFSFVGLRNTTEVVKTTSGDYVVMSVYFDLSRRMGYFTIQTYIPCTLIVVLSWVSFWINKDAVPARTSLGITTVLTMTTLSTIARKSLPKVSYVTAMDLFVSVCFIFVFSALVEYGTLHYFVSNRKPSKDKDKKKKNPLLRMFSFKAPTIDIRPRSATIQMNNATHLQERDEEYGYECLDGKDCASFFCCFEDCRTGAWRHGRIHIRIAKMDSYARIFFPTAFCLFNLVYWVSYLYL

Chain of N-methyl-D-aspartate receptor (NMDAR) NR1/NR2B (Q13224 27-1484, other chains not shown): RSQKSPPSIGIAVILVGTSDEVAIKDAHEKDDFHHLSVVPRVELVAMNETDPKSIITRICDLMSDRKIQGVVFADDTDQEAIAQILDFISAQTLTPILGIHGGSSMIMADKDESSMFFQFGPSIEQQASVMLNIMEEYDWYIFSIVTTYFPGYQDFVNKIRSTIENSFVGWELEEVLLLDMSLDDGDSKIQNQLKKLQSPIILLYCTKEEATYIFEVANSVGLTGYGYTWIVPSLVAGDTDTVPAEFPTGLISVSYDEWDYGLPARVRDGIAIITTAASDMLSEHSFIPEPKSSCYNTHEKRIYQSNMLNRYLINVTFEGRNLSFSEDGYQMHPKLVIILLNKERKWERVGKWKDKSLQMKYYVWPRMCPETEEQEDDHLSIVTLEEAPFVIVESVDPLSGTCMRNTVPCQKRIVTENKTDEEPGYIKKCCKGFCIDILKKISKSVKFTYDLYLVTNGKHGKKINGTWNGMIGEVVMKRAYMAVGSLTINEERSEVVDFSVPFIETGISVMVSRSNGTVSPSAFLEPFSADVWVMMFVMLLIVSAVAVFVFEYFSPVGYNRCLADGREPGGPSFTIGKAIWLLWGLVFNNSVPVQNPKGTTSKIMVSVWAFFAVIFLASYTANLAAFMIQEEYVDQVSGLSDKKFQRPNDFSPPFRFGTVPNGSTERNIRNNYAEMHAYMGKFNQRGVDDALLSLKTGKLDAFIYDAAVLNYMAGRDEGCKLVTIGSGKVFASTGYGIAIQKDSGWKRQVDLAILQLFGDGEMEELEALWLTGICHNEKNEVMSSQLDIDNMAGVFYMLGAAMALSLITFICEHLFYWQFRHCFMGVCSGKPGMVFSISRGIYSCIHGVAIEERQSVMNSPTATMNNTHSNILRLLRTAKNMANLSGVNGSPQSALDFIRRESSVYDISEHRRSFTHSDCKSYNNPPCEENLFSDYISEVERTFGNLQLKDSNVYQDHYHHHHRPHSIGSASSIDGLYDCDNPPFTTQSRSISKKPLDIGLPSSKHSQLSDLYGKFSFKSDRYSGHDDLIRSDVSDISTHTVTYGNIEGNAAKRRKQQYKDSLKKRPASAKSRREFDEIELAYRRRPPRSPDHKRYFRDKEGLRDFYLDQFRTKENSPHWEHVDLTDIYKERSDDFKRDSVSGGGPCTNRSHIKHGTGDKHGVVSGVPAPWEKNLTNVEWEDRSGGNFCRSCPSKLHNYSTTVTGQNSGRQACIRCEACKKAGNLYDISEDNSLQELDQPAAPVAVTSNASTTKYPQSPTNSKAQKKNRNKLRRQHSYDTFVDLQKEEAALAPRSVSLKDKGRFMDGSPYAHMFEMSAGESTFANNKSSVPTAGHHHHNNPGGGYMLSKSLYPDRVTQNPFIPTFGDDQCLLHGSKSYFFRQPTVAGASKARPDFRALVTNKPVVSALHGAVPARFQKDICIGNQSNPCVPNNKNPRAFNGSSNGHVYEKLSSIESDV

In assay [1], `c1ccccc1` [benzene] showed a half-inhibitory concentration (IC50) of 340 ± 40 µM.

In turn, `FC(F)OC(Cl)C(F)(F)F` (stereo not drawn) [ISO, isoflurane] gave a 50% inhibitory concentration (IC50) in assay [1] of 2400 µM.

Take `ClC(Cl)Cl` [chloroform]: the “whole-cell patch clamp, shift of GABA EC50” value in assay [2] was “Both halothane and chloroform decreased the GABA EC50 in a dose dependent and saturable manner”.
